In patent US20050043178A1, “Herbicidal and bacteriostatic compounds from centaurea maculosa” (Colorado State University Research Foundation, priority 2001, published 2005):
“Also recorded” adds a separate entry of the source.

Legend:
[1] = tested on: various weeds and crop plants; test: Phytotoxic effect on seedlings of weeds and crop plants; assay type: in vivo; details: incl. C. diffusa
Method: (§1) Root exudates collected from non-elicited cultures of C. maculosa were administered in different concentrations (1-3 ml v/v) in the MS basal liquid media containing different seedlings to analyze phenotypic explant response. ii) Effect of fungal cell wall (CWE) elicited root exudates of C. maculosa on shoots and root differentiation of different weeds and crop plants on 14th day. Fungal cell wall extracts (CWE) from Phytophthora cinnamoni and Rhizoctonia solani were used. Data represents the percent inhibition as compared to the untreated control in shooting and rooting response in various tested seedlings against non-elicited and elicited root exudates of C. maculosa. The seedlings tested against C. maculosa exudates were as follows:1: C. maculosa; 2: L. dalmatica; 3: V. thapsus; 4: B. tectorum, 5: K. scoparia; 6: C. diffusa; 7: A. thaliana 8: T. aestivum; 9: L. esculentum. [Means of different letters at the top of each bar indicate significant difference (p<0.05) (SEM±52df)]. • B) Effect of purified HPLC-fraction from C. maculosa root exudates on morphological differentiation of various weeds and food crops. HPLC peaks were collected and administered into 5 ml MS basal medium at 100 μg ml^−1 concentration; fractions were added in different permutations. i) C. maculosa; ii) C. diffusa; iii) K scoparia; iv) L. dalmatica; v) A.thaliana; vi) T. aestivum. […]

soil borne bacteria = test: Antibacterial assay on soil borne bacteria (six strains); assay type: cell-based; details: six bacterial strains / soil-borne pathogens tested
Method: (§2) Catechin and 2, 4-D were administered in MS basal medium at different concentration range (1-200 μg ml^−1) to check for the minimum inhibitory concentration (MIC). i) 10 μg ml^−1; ii) 60 μg ml^−1; iii) 100 μg ml^−1. • B) Effect of catechin on shoot and root differentiation in A. thaliana plants on the 14th day. Catechin was compared for phytoxicity against 2, 4-D and was administered at 100 μg ml^−1 concentration in MS basal medium (5 ml). Treatments were as follows: 1) Untreated control; 2) (+)-catechin; 3) (−)-catechin; 4) (±)-catechin; 5) (+/−) co-administered catechin; 6) (±) catechin isolated from root exudates of C. maculosa; 7) 2, 4-D. [Means of different letters at the top of each bar indicate significant difference (p<0.05) (SEM±52df)]. • C) Antibacterial activity of (+)-catechin on different bacterial strains. i) Tube antibacterial assay. 1) Control (without (+)-catechin); 2) (+)-catechin 100 μg ml^−1; 3) (+)-catechin 150 μg ml^−1; 4) (+)-catechin 200 μg ml^−1. Bacterial cultures were grown overnight at 24° C. in liquid LB media to an optical density of 0.2 at 600 nm. Different concentrations (100-200 μg ml^−1) of (+)-catechin were administered to the bacteria-containing LB media. Optical density at 600 nm was checked after 24 hrs of incubation to measure bacterial inhibition in tubes. Antibacterial activity was assayed on both tubes and 35 mm plates. ii) Antibacterial activity of (+)-catechin on Pseudomonas fluorescens analyzed in a petri dish assay. Treatments on petri dish refers to the following concentrations: 1) Methanol ((+)-catechin solvent) was used as a control; II) (−)-catechin (100 μg ml^−1); III) (+)-catechin (100 μg/ml); IV) (±)-catechin (200 μg ml^−1); V) (±)-catechin (200 μg ml^−1) isolated from root exudates of C. maculosa.
(§3) Antibacterial plate assay was performed on a bacterial culture grown overnight; both the enantiomers and the racemic catechin were added to the paper discs and allowed to dry under laminar hood conditions. […] Visual observations for inhibition zone were recorded after 24 hrs. […]

[2] = tested on: Arabidopsis thaliana shoot cultures; test: Phytotoxicity (MIC, shoot and root differentiation) on Arabidopsis thaliana in MS basal medium; assay type: in vivo; details: for minimum inhibitory concentration (MIC): Arabidopsis thaliana shoot cultures in vitro
Method: as §2
Root exudates of in vitro-grown C. maculosa plants were assayed for their effects on the phenotypic response and germnination efficiency of various weeds, including Linaria dalmatica (Dalmatian toadflax), Verbascum thapsus (common mullein), Bromos tectorum (downy brome), Kochia scoparia (kochia), Centaurea diffusa (diffuse knapweed), the model plant Arabidopsis thaliana and crops such as wheat (Triticum aestivum) and tomato (Lycopersicon esculentum). Ten day old seedlings and seeds of C. maculosa, L. dalmatica, V. thapsus, B. tectorum, K. scoparia, C. diffusa, A. thaliana, T. aestivum and L. esculetum were placed on MS basal medium in petri dishes after initial surface sterilization. Petri dishes were kept under a 16 hour light and 8 hour dark photoperiod in an incubator (Lab-Line). An additional objective was to check the effect of allelochemicals from C. maculosa on growth and differentiation of food crops such as Triticum aestivum (Wheat) and Lycopersicon esculetum (Tomato). This was of interest as wheat is known to produce an allelopathic effect in its root exudates (H. Wu, T. Haig, J. Prateley, D. Lemerle, M. An, J. Food Agric Chem. 48, 5321 (2000)). Root exudates collected from non-elicited and elicited cultures of C. maculosa were administered in different concentrations (1-3 ml v/v) over the surface sterilized seeds and seedlings to analyze their phytotoxic effects. […] After incubation, growth parameters such as length of shoots, number of shoots and length of primary root of the treated and untreated plants were measured. […]

C. maculosa = test: Effect on C. maculosa itself (autotoxicity); assay type: in vivo, Centaurea maculosa; details: FIG. 1(b and c)
Method: as §1

Xanthomonas campestris = test: Tube antibacterial assay (OD 600 nm after 24 hrs); assay type: cell-based; details: 100-200 μg/ml
Method: as §2, §3

Erwinia carotovora = test: Tube antibacterial assay (OD 600 nm after 24 hrs); assay type: cell-based; details: 100-200 μg/ml
Method: as §2, §3

[3] = tested on: Agrobacterium rhizogenes (15834); test: Tube antibacterial assay (OD 600 nm after 24 hrs); assay type: cell-based; details: even at higher concentrations
Method: as §2, §3

Pseudomonas fluorescens = test: Tube and plate antibacterial assay; assay type: cell-based; details: 100-200 μg/ml, 24 hrs
Method: Catechin and 2, 4-D were administered in MS basal medium at different concentration range (1-200 μg ml^−1) to check for the minimum inhibitory concentration (MIC). i) 10 μg ml^−1; ii) 60 μg ml^−1; iii) 100 μg ml^−1. • B) Effect of catechin on shoot and root differentiation in A. thaliana plants on the 14th day. Catechin was compared for phytoxicity against 2, 4-D and was administered at 100 μg ml^−1 concentration in MS basal medium (5 ml). Treatments were as follows: 1) Untreated control; 2) (+)-catechin; 3) (−)-catechin; 4) (±)-catechin; 5) (+/−) co-administered catechin; 6) (±) catechin isolated from root exudates of C. maculosa; 7) 2, 4-D. [Means of different letters at the top of each bar indicate significant difference (p<0.05) (SEM±52df)]. • C) Antibacterial activity of (+)-catechin on different bacterial strains. i) Tube antibacterial assay. […] Antibacterial activity was assayed on both tubes and 35 mm plates. ii) Antibacterial activity of (+)-catechin on Pseudomonas fluorescens analyzed in a petri dish assay. […]
as §3

Compound: (−)-catechin [(−)catechin]
- spectrum of phytotoxicity / allelochemical activity [1]: broad-spectrum phytotoxicity
- antibacterial activity (soil borne bacteria): failed to show any antibacterial activity
- antibacterial activity (soil borne bacteria; listed as (−)-catechin): does not show
- doses accounting for the allelochemical activity (as low as) ([2]; A. thaliana, FIGS. 2 a, b): 50 to 60 µg/mL

Compound: O=C(O)COc1ccc(Cl)cc1Cl [2,4-D, 2,4-dichlorophenoxyacetic acid, reference compound]
- minimum inhibitory concentration (MIC) [2]: 10 µg/mL

Compound: Oc1cc(O)c2c(c1)OC(c1ccc(O)c(O)c1)C(O)C2 (racemic) [(±)-catechin]
- resistance of C. maculosa (C. maculosa): strongly resistant
- minimum inhibitory concentration (MIC) [2]: about 100 μg/ml
- effect compared with root exudated (±)-catechin ([2]; commercially available racemate, FIG. 2(a and b)): same effect as root exudated (±)-catechin

Compound: Oc1cc(O)c2c(c1)O[C@H](c1ccc(O)c(O)c1)[C@@H](O)C2 [(+)-catechin]
- inhibition of growth (decrease in optical density) (Xanthomonas campestris): distinct inhibition of growth
- inhibition of growth (decrease in optical density) (Erwinia carotovora): distinct inhibition of growth
- inhibition of growth [3]: not affected
- antibacterial activity (soil borne bacteria): antibacterial activity against root infesting pathogens; also recorded: most showed a degree of inhibition
- allelochemical activity / phytotoxicity ([2]; A. thaliana, FIGS. 2 a, b): not phytotoxic; also recorded: did not show allelochemical activity
- inhibition of growth (decrease in optical density) (Pseudomonas fluorescens): distinct inhibition of growth
